Results reported in patent publication US9655363B2, “Microbiocides” (Syngenta Participations AG, priority 2013, dated 2017).

Legend:
[1] = test system: Blumeria Graminis f. sp. Tritici (Erysiphe Graminis f. sp. Tritici); assay: Blumeria graminis f. sp. tritici / wheat / leaf disc preventative (powdery mildew on wheat); assay type: in vivo; conditions: foliar, wheat leaf disc cv. Kanzler, compared to untreated, 6-8 days after application, read-out: disease control
Description: Fungicidal Activity Against Blumeria Graminis f. sp. Tritici (Erysiphe Graminis f. sp. Tritici)/Wheat/Leaf Disc Preventative (Powdery Mildew on Wheat) Wheat leaf segments cv. Kanzler were placed on agar in a multiwell plate (24-well format) and sprayed with the formulated test compound diluted in water. The leaf disks were inoculated by shaking powdery mildew infected plants above the test plates 1 day after application. The inoculated leaf disks were incubated at 20° C. and 60% rh under a light regime of 24 h darkness followed by 12 h light/12 h darkness in a climate chamber and the activity of a compound was assessed as percent disease control compared to untreated when an appropriate level of disease damage appears on untreated check leaf segments (6-8 days after application).

[2] = test system: Puccinia Recondita f. sp. Tritici; assay: Puccinia recondita f. sp. tritici / wheat / leaf disc preventative (brown rust); assay type: in vivo; conditions: foliar, wheat leaf disc cv. Kanzler, compared to untreated, 7-9 days after application, read-out: disease control
Description: Fungicidal Activity Against Puccinia Recondita f. sp. Tritici/Wheat/Leaf Disc Preventative (Brown Rust) Wheat leaf segments cv. Kanzler were placed on agar in multiwell plates (24-well format) and sprayed with the formulated test compound diluted in water. The leaf disks were inoculated with a spore suspension of the fungus 1 day after application. The inoculated leaf segments were incubated at 19° C. and 75% rh under a light regime of 12 h light/12 h darkness in a climate cabinet and the activity of a compound was assessed as percent disease control compared to untreated when an appropriate level of disease damage appears in untreated check leaf segments (7-9 days after application).

[3] = test system: Puccinia Recondita f. sp. Tritici; assay: Puccinia recondita f. sp. tritici / wheat / leaf disc curative (brown rust); assay type: in vivo; conditions: foliar, 192 h, compared to untreated, 8 days after inoculation, read-out: disease control
Description: Fungicidal Activity Against Puccinia Recondita f. sp. Tritici/Wheat/Leaf Disc Curative (Brown Rust) Wheat leaf segments are placed on agar in multiwell plates (24-well format). The leaf disks are then inoculated with a spore suspension of the fungus. One day after inoculation the test solution is applied. After appropriate incubation the activity of a compound is assessed 8 dpi (days after inoculation) as curative fungicidal activity. Dose range: 200-22 ppm.

[4] = test system: Mycosphaerella Arachidis (Cercospora Arachidicola); assay: Mycosphaerella arachidis (Cercospora arachidicola) / liquid culture (early leaf spot); assay type: cell-based; conditions: liquid culture (PDB), growth inhibition photometrically 4-5 days after application, read-out: disease control
Description: Fungicidal Activity Against Mycosphaerella Arachidis (Cercospora Arachidicola)/Liquid Culture (Early Leaf Spot) Conidia of the fungus from cryogenic storage were directly mixed into nutrient broth (PDB potato dextrose broth). After placing a (DMSO) solution of test compound into a microtiter plate (96-well format), the nutrient broth containing the fungal spores was added. The test plates were incubated at 24° C. and the inhibition of growth was determined photometrically 4-5 days after application.

[5] = test system: Mycosphaerella Graminicola (Septoria Tritici); assay: Mycosphaerella graminicola (Septoria tritici) / liquid culture (Septoria blotch); assay type: cell-based; conditions: Zymoseptoria tritici, liquid culture (PDB), growth inhibition photometrically 4-5 days after application, read-out: disease control
Description: Fungicidal Activity Against Mycosphaerella Graminicola (Septoria Tritici)/Liquid Culture (Septoria Blotch) Conidia of the fungus from cryogenic storage were directly mixed into nutrient broth (PDB potato dextrose broth). After placing a (DMSO) solution of test compound into a microtiter plate (96-well format), the nutrient broth containing the fungal spores was added. The test plates were incubated at 24° C. and the inhibition of growth was determined photometrically 4-5 days after application.

OC(Cn1cncn1)(c1ccc(Cl)cc1)C1(c2ccc(Cl)cn2)CCC1 (centres unmarked) [Compound 16, 1-(4-chlorophenyl)-1-[1-(5-chloro-2-pyridyl)cyclobutyl]-2-(1,2,4-triazol-1-yl)ethanol]
≥ 80%: pest or weed control at 200 ppm [1] | pest or weed control at 200 ppm [2] | pest or weed control at 200 ppm [3] | inhibition of growth at 200 ppm [4] | inhibition of growth at 200 ppm [5]

OC(Cn1ccnc1)(c1ccc(F)cc1)C1(c2ncc(Br)cc2Cl)CC1 (centres unmarked) [Compound 5, 1-[1-(5-bromo-3-chloro-2-pyridyl)cyclopropyl]-1-(4-fluorophenyl)-2-imidazol-1-yl-ethanol]
≥ 80%: pest or weed control at 200 ppm [1] | pest or weed control at 200 ppm [2] | pest or weed control at 200 ppm [3]

OC(Cn1cncn1)(c1ccc(F)cc1)C1(c2ccc(-c3ccc(Cl)cc3F)cn2)CCC1 (centres unmarked) [Compound 19, 1-[1-[5-(4-chloro-2-fluoro-phenyl)-2-pyridyl]cyclobutyl]-1-(4-fluorophenyl)-2-(1,2,4-triazol-1-yl)ethanol]
≥ 80%: pest or weed control at 200 ppm [1] | inhibition of growth at 200 ppm [4] | inhibition of growth at 200 ppm [5]

OC(Cn1cncn1)(c1ccc(Cl)cc1)C1(c2ccccn2)CCCC1 (centres unmarked) [Compound 15, 1-(4-chlorophenyl)-1-[1-(2-pyridyl)cyclopentyl]-2-(1,2,4-triazol-1-yl)ethanol]
≥ 80%: pest or weed control at 200 ppm [1] | pest or weed control at 200 ppm [2] | pest or weed control at 200 ppm [3] | inhibition of growth at 200 ppm [4] | inhibition of growth at 200 ppm [5]

N#Cc1ccc(C2(C(O)(Cn3cncn3)c3ccc(F)cc3)CC2)nc1 (centres unmarked) [Compound 12, 6-[1-[1-(4-fluorophenyl)-1-hydroxy-2-(1,2,4-triazol-1-yl)ethyl]cyclopropyl]pyridine-3-carbonitrile]
≥ 80%: pest or weed control at 200 ppm [1] | pest or weed control at 200 ppm [2] | pest or weed control at 200 ppm [3] | inhibition of growth at 200 ppm [5]

OC(Cn1cncn1)(c1ccc(F)cc1)C1(c2ccc(Br)c(-c3ccc(F)cc3)n2)CC1 (centres unmarked) [Compound 6, 1-[1-[5-bromo-6-(4-fluorophenyl)-2-pyridyl]cyclopropyl]-1-(4-fluorophenyl)-2-(1,2,4-triazol-1-yl)ethanol]
≥ 80%: pest or weed control at 200 ppm [1] | pest or weed control at 200 ppm [2] | pest or weed control at 200 ppm [3] | inhibition of growth at 200 ppm [4]

OC(Cn1cncn1)(c1ccc(F)cc1)C1(c2ccc(Cl)nc2)CC1 (centres unmarked) [Compound 9, 1-[1-(6-chloro-3-pyridyl)cyclopropyl]-1-(4-fluorophenyl)-2-(1,2,4-triazol-1-yl)ethanol]
≥ 80%: pest or weed control at 200 ppm [1] | pest or weed control at 200 ppm [2] | pest or weed control at 200 ppm [3] | inhibition of growth at 200 ppm [4] | inhibition of growth at 200 ppm [5]

OC(Cn1cncn1)(c1ccc(F)cc1)C1(c2ccc(-c3cccc(OC(F)(F)F)c3)cn2)CCC1 (centres unmarked) [Compound 18, 1-(4-fluorophenyl)-2-(1,2,4-triazol-1-yl)-1-[1-[5-[3-(trifluoromethoxy)phenyl]-2-pyridyl]cyclobutyl]ethanol]
≥ 80%: pest or weed control at 200 ppm [1] | inhibition of growth at 200 ppm [4] | inhibition of growth at 200 ppm [5]

OC(Cn1ccnc1)(c1ccc(F)cc1)C1(c2ccc(Br)cn2)CC1 (centres unmarked) [Compound 3, 1-[1-(5-bromo-2-pyridyl)cyclopropyl]-1-(4-fluorophenyl)-2-imidazol-1-yl-ethanol]
≥ 80%: pest or weed control at 200 ppm [1] | pest or weed control at 200 ppm [2] | pest or weed control at 200 ppm [3]
